The test system of one data set is Calu-6 cells. Put plainly: Cell proliferation (CCK8) assay, Calu-6. It counts as cell-based. As to conditions: Homo sapiens, Calu-6, 72 h, read-out: IC50 (growth inhibition, cytotoxicity). As for the experimental part: (§1) A375, HCT116, Calu-6, and B16-F10 cells were purchased from American Type Culture Collection (ATCC) and cultured in DMEM high glucose media (SH30022.01, Cytiva, Shanghai, China) supplemented with 10% fetal bovine serum (10099-144, Gibco, Carlsbad, CA, USA) and 1% penicillin/streptomycin (Solarbio, Beijing, China) in an incubator at 37 °C with 5% CO2.
(§2) A 96-well plate (3599, Corning, New York, NY, USA) was inoculated with 100 μL of complete medium containing 10,000 cells, and the experimental, control, and blank groups were established. Three parallel wells were used per concentration. After 10 h, the media from the experimental and control groups were replaced with a compound containing the indicated concentration of the complete medium. Cells were incubated for 72 h before 10 μL of CCK8 reagent (CA1210, Solarbio, Beijing, China) was added to each well and incubated for 1 h. Using a microplate reader (Tecan, Mannendorf, Switzerland), the absorbance at 450 nm was measured. The IC50 values were determined using GraphPad Prism 8 and nonlinear regression curve fitting.

The test system of a further data set is A375 cells. Briefly: Cell proliferation (CCK8) assay, A375. It counts as cell-based. As to conditions: Homo sapiens, A-375, A375, 72 h, read-out: IC50 (growth inhibition, cytotoxicity). As for the experimental part:
as §1, §2

Another data set has as its system HCT116 cells. Put plainly: Cell proliferation (CCK8) assay, HCT116. It counts as cell-based, human. As to conditions: Homo sapiens, HCT-116, 72 h, HCT116, 72 h, read-out: IC50 (growth inhibition, cytotoxicity). The method, then: as §1, §2
The test system of a further data set is ERK1/2. Put plainly: Western blot ERK1/2 protein degradation assay in A375 cells. As to conditions: 48 h; for ERK1/2 degradative activity (in words): Western blot; for DC50: Western blotting and grayscale quantification; for DCmax: Western blot with grayscale quantification. It counts as cell-based, human. The method, then:
as §1
Cells were cultured under the indicated conditions as described in “Cell culture”. Cells were seeded in 6-well plates (3516, Corning, New York, NY, USA). Compounds were dissolved in DMSO for storage (10 mM). Following compound treatment, cells were washed with PBS, scraped from the plate, and lysed using cell lysis buffer (Applygen, Beijing, China). After the protein in the cell lysate was quantified via the BCA quantification method, the samples were placed in a metal bath at 100 °C and heated for 5 min. Cell lysates were separated using a 10% SDS–PAGE gel and transferred to PVDF membranes (Merck Millipore, Burlington, MA, USA). The PVDF membrane was blocked with 5% nonfat dry milk in TBST for one hour. The PVDF membrane was transferred to the antibody diluent and incubated overnight at 4 °C. PVDF membranes were washed three times with TBST for 5 min each and then incubated with the appropriate HRP-conjugated secondary antibody for 1 h at room temperature. After washing three more times with TBST, the PVDF membrane was stained with a hypersensitive ECL chemiluminescence reagent (Biodragon, Beijing, China) and then imaged with Tanon 5200. Grayscale quantitative analysis was performed using ImageJ software. Statistical analysis was performed using GraphPad Prism 8. DC50 and Dmax values were fitted using a four-parameter [inhibitor] versus response and reported directly from the Prism output. Mean ± SD and unpaired t tests were performed in GraphPad Prism.
In general terms: Immunoblotting shows a protein as a band on a membrane.

“Also recorded” adds a separate entry of the source.

As a reminder, the IC50 is the concentration that inhibits the measured activity by half. As for `CNCCC#Cc1cc(Nc2ncc(C)c(-c3cc4n(c3)C[C@@H](C)N(Cc3cccc(C)n3)C4=O)n2)ccn1` [B-J], the figures for the IC50 in the data set on Calu-6 cells, in the data set with A375 cells and with HCT116 cells were 6.5 ± 1.3 µM, 16.8 ± 3 µM and 17.8 ± 3.9 µM, respectively.

For `Cc1cccc(CN2C(=O)c3cc(-c4nc(Nc5ccn(CCCCNC(=O)CCCCCCCCCNc6cccc7c6C(=O)N(C6CCC(=O)NC6=O)C7=O)n5)ncc4C)cn3C[C@H]2C)n1` (some centres unmarked) [Compound B1-10BZ], in the data set on ERK1/2, the “ERK1/2 degradative activity (in words)” value is recorded as “degradative activity disappeared; also recorded: no degradative activity was observed”.

In the case of `Cc1cccc(CN2C(=O)c3cc(-c4nc(Nc5cccc(C#CCCNC(=O)CCCCCCCCCNc6cccc7c6C(=O)N(C6CCC(=O)NC6=O)C7=O)c5)ncc4C)cn3C[C@H]2C)n1` (some centres unmarked) [Compound B1-10B], in the data set on ERK1/2, the “ERK1/2 degradative activity (in words)” value is listed as “no degradative activity was observed”.

In general, melting point refers to the temperature, or range, at which the solid turns liquid. `Cc1cccc(CN2C(=O)c3cc(-c4nc(Nc5ccnc(NCCCNC(=O)CCCCCCCCCNc6cccc7c6C(=O)N(C6CCC(=O)NC6=O)C7=O)c5)ncc4C)cn3C[C@H]2C)n1` (some centres unmarked) [Compound B1-10N] returned a melting point of 110 to 111 °C. Further, the “ERK1/2 degradative activity (in words)” value in the data set with ERK1/2 is “degradative activity disappeared”.

In general, DC50 refers to the midpoint of the concentration-degradation curve. The low end stands for degradation at low concentration, the high end for degradation only at high concentration. Turning to `Cc1cccc(CN2C(=O)c3cc(-c4nc(Nc5ccnc(C#CCCN6CCN(CCCCCCCCNc7cccc8c7C(=O)N(C7CCC(=O)NC7=O)C8=O)CC6)c5)ncc4C)cn3C[C@H]2C)n1` (some centres unmarked) [Compound B1-10P], the IC50 is more than 30 µM in the data set with Calu-6 cells, more than 30 µM with A375 cells and 2.2 ± 0.6 µM in the data set with HCT116 cells. For the same compound, the “ERK1/2 degradative activity (in words)” value with ERK1/2 is given as “slightly increased DC50; also recorded: effective ERK1/2 degraders”. The DC50 with ERK1/2 stood at 0.616 ± 0.389 µM.

Consider `Cc1cccc(CN2C(=O)c3cc(-c4nc(Nc5ccnc(C#CCCNC(=O)CCCCCCCCCNc6cccc7c6C(=O)N(C6CCC(=O)NC6=O)C7=O)c5)ncc4C)cn3C[C@H]2C)n1` (some centres unmarked) [Compound B1-10], for which the IC50 with Calu-6 cells is more than 30 µM. For the same compound, the IC50 with A375 cells is more than 30 µM. Moreover, in the data set on HCT116 cells, the IC50 is more than 30 µM. Further, in the data set with ERK1/2, the “ERK1/2 degradative activity (in words)” value was “effective ERK1/2 degraders”, the DCmax result is “exceeding 65%” and it took 0.333 ± 0.169 µM to reach half-maximal degradation (DC50).

In turn, `Cc1cccc(CN2C(=O)c3cc(-c4nc(Nc5ccnc(C#CCCNC(=O)CCCCCCCCC(=O)N[C@H](C(=O)N6C[C@H](O)C[C@H]6C(=O)N[C@@H](C)c6ccc(-c7scnc7C)cc6)C(C)(C)C)c5)ncc4C)cn3C[C@H]2C)n1` [Compound B2-10] registered a melting point of 144 to 145 °C. Besides, in the data set with ERK1/2, the “ERK1/2 degradative activity (in words)” value is reported as “effective ERK1/2 degraders” and it took 0.699 ± 0.361 µM to reach half-maximal degradation (DC50).

For `Cc1cccc(CN2C(=O)c3cc(-c4nc(Nc5ccnc(C#CCCN(C)CCCCCCCCCCCC(=O)N[C@H](C(=O)N6C[C@H](O)C[C@H]6C(=O)N[C@@H](C)c6ccc(-c7scnc7C)cc6)C(C)(C)C)c5)ncc4C)cn3C[C@H]2C)n1` [Compound B2-12J], in the data set with ERK1/2, the “ERK1/2 degradative activity (in words)” value is recorded as “lost its degradative activity”.

`Cc1cccc(CN2C(=O)c3cc(-c4nc(Nc5ccnc(C#CCCN6CCN(CCCCCCCCCC(=O)N[C@H](C(=O)N7C[C@H](O)C[C@H]7C(=O)N[C@@H](C)c7ccc(-c8scnc8C)cc7)C(C)(C)C)CC6)c5)ncc4C)cn3C[C@H]2C)n1` [Compound B2-12P]: the melting point lay in the range of 145 to 146 °C. Also, in the data set on ERK1/2, the “ERK1/2 degradative activity (in words)” value is “significantly increased DC50 value” and the DC50 is 3.8 ± 1.82 µM.

As to `Cc1cccc(CN2C(=O)c3cc(-c4nc(Nc5ccnc(C#CCCNC(=O)CCCCCCCCCCCCC(=O)N[C@H](C(=O)N6C[C@H](O)C[C@H]6C(=O)N[C@@H](C)c6ccc(-c7scnc7C)cc6)C(C)(C)C)c5)ncc4C)cn3C[C@H]2C)n1` [Compound B2-14], the melting point fell in the range of 128 to 129 °C. Moreover, in the data set on ERK1/2, the “ERK1/2 degradative activity (in words)” value is recorded as “effective ERK1/2 degraders”, the DCmax result was “exceeding 65%” and the DC50 was found to be 0.307 ± 0.191 µM.

Values taken from publication PMC10671693, “Design, Synthesis, and Antitumor Activity Evaluation of Proteolysis-Targeting Chimeras as Degraders of Extracellular Signal-Regulated Kinases 1/2” (International Journal of Molecular Sciences, 2023).
